In ChEMBL document CHEMBL5108030, “Structure activity relationships leading to the identification of the indirect activator of AMPK, R419” (Bioorg Med Chem, 2022):

Legend:
[1] = target: AMP-activated protein kinase, AMPK; assay: Activation of AMPK in human HepG2 cells assessed as increase in ACC phosphorylation at Ser79 incubated for 1 hr; type: cell-based
[2] = target: AMP-activated protein kinase, AMPK; assay: Activation of AMPK in human HepG2 cells assessed as reduction in mitochondrial ATP production incubated for 1 hr; type: cell-based
hERG (KCNH2) [3] = target: T1, hERG (KCNH2) (Homo sapiens, UniProt Q12809); assay: Inhibition of human ERG at 3 uM; type: toxicity
A549 = assay: Antiproliferative activity against human A549 cells assessed as cell growth inhibition incubated for 48 hrs by DAPI staining assay; type: functional, cell-based; conditions: A549, 48 h
[4] = Microsomal stability in human liver microsomes assessed as half life; type: ADME, Microsome
NCI-H1299 = assay: Antiproliferative activity against human NCI-H1299 cells assessed as cell growth inhibition incubated for 48 hrs by DAPI staining assay; type: functional, cell-based; conditions: NCI-H1299, 48 h
Cytochrome P450 3A4 [5] = target: T2, Cytochrome P450 3A4 (Homo sapiens, UniProt P08684); assay: Inhibition of CYP3A4 (unknown origin); type: ADME
Cytochrome P450 3A4 [6] = target: T2, Cytochrome P450 3A4; assay: Inhibition of CYP3A4 (unknown origin) in presence of NADPH; type: ADME
hERG (KCNH2) [7] = target: T1, hERG (KCNH2); assay: Inhibition of human ERG at 10 uM; type: toxicity
[8] = Clearance in rat at 1 mg/kg,iv measured upto 10 hrs; type: ADME, organism-based; conditions: in vivo

T1 sequence (Q12809 whole entry): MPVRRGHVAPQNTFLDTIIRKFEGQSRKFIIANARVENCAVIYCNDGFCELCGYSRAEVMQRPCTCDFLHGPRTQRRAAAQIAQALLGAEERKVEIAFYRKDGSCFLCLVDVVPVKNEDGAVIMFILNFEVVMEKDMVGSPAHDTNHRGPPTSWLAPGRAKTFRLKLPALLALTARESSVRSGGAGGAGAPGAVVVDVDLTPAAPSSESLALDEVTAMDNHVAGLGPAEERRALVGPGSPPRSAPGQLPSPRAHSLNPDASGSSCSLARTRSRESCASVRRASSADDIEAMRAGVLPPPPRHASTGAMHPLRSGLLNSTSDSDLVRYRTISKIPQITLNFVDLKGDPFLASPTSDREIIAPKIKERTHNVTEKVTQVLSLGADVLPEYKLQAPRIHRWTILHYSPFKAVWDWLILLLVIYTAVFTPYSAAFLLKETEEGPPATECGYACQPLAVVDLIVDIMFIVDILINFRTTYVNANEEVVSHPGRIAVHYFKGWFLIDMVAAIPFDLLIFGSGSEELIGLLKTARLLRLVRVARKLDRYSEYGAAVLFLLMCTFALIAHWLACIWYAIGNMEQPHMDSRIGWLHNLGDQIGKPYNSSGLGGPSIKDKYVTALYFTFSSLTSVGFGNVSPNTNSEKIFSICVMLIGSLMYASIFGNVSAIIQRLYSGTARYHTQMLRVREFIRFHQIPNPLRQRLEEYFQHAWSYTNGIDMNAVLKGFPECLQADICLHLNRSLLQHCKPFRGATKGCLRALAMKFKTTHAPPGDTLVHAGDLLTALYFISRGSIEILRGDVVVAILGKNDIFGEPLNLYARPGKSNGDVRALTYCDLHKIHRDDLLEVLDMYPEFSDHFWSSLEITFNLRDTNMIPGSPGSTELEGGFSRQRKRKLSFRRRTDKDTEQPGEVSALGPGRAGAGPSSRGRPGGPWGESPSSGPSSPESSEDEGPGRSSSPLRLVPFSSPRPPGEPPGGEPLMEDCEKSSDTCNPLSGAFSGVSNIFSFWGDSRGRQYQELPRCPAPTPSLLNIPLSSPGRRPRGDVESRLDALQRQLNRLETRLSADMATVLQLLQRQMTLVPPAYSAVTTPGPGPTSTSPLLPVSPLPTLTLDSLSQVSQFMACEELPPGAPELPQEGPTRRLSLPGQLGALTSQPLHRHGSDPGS
T2 sequence (P08684 whole entry): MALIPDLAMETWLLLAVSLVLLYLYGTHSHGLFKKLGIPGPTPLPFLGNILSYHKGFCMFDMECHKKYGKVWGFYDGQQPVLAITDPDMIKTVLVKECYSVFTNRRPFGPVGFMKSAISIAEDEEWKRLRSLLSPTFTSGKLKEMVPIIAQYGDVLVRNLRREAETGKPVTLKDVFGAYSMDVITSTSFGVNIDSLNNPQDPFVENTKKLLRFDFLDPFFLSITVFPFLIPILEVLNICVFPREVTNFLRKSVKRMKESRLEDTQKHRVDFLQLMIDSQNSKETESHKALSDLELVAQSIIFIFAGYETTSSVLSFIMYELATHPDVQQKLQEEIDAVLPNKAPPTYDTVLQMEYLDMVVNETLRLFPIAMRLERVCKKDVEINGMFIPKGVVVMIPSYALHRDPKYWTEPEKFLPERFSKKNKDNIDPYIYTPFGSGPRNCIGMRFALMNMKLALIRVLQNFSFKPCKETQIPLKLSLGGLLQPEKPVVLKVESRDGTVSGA

Row | EC50 [1] [nM] | IC50 [2] [nM] | IC50 (A549) [nM] | IC50 (NCI-H1299) [nM] | Structure (SMILES) | other results
1 | 27 | 2390 | > 20000 | > 20000 | COc1ccc(C(=O)C2CCN(C(=O)c3ccc(C(=O)NC4CCN(Cc5ccc(F)cc5)CC4)cn3)CC2)cc1 | inhibition at 3 µM (hERG (KCNH2) [3]): 64%; half-life [4]: 71 min
2 | 41 | 2310 | > 20000 | > 20000 | COc1ccc(CN2CCC(NC(=O)c3ccc(C(=O)N4CCC(C(=O)c5ccc(OC)cc5)CC4)nc3)CC2)cc1 | inhibition at 3 µM (hERG (KCNH2) [3]): 70%
3 | 1000 | – | 8790 | 11000 | COc1ccc(C(=O)C2CCN(C(=O)c3ccc(C(=O)NC4CCN(Cc5ccc(NC(C)=O)cc5)CC4)cn3)CC2)cc1 | –
4 | 12 | 730 | 8670 | 9270 | O=C(NC1CCN(Cc2ccc(F)cc2)CC1)c1ccc(C(=O)N2CCC(C(=O)c3ccc(N4CCCC4)cc3)CC2)nc1 | inhibition at 10 µM (hERG (KCNH2) [7]): 82%; half-life [4]: 63 min; clearance [8]: 269 mL/min/kg
5 | 9 | 820 | > 20000 | > 20000 | COc1ccc(C(=O)C2CCN(C(=O)c3ccc(C(=O)NC4CCN(Cc5ccc(OC(F)(F)F)cc5)CC4)cn3)CC2)cc1 | inhibition at 10 µM (hERG (KCNH2) [7]): 21%
6 | 1500 | – | 7160 | 8720 | COc1ccc(CN2CCC(NC(=O)c3ccc(C(=O)N4CCC(C(=O)c5ccc(S(C)(=O)=O)cc5)CC4)nc3)CC2)cc1 | –
7 | 2000 | – | 6720 | 7190 | CS(=O)(=O)c1ccc(C(=O)C2CCN(C(=O)c3ccc(C(=O)NC4CCN(Cc5ccc(C#N)cc5)CC4)cn3)CC2)cc1 | –
8 | 2000 | – | 6270 | 8700 | CS(=O)(=O)c1ccc(C(=O)C2CCN(C(=O)c3ccc(C(=O)NC4CCN(Cc5ccc(F)cc5)CC4)cn3)CC2)cc1 | inhibition at 3 µM (hERG (KCNH2) [3]): 83%
9 | 57 | 200 | 13000 | 8400 | COc1ccc(CN2CCC(NC(=O)c3ccc(C(=O)N4CCC(C(=O)c5ccc(N6CCCC6)cc5)CC4)nc3)CC2)cc1 | –
10 | 1050 | – | 13400 | > 20000 | COc1ccc(C(=O)C2CCN(C(=O)c3ccc(C(=O)NC4CCN(Cc5ccc(C(=O)N(C)C)cc5)CC4)cn3)CC2)cc1 | –
11 | 1000 | – | 8990 | 13800 | COc1ccc(C(=O)C2CCN(C(=O)c3ccc(C(=O)NC4CCN(Cc5ccc(N)cc5)CC4)cn3)CC2)cc1 | –
12 | 2 | 21 | – | – | N#Cc1ccc(CN2CCC(NC(=O)c3ccc(C(=O)N4CCC(C(=O)c5ccc(F)cc5)CC4)cn3)CC2)cc1 | –
13 | 9 | 1280 | 5060 | 8280 | O=C(NC1CCN(Cc2ccc(OC(F)(F)F)cc2)CC1)c1ccc(C(=O)N2CCC(C(=O)c3ccc(N4CCCC4)cc3)CC2)nc1 | –
14 | 18 | 1870 | – | – | N#Cc1ccc(CN2CCC(NC(=O)c3ccc(C(=O)N4CCC(C(=O)c5ccc(F)cc5F)CC4)nc3)CC2)cc1 | inhibition at 3 µM (hERG (KCNH2) [3]): 64%
15 | 86 | – | 10400 | 10900 | N#Cc1ccc(CN2CCC(NC(=O)c3ccc(C(=O)N4CCC(C(=O)c5ccc(-n6cccn6)cc5)CC4)nc3)CC2)cc1 | –
16 | – | – | 9140 | 5520 | COc1ccc(C(=O)C2CCN(C(=O)c3ccc(C(=O)NC4CCN(Cc5ccc(S(C)(=O)=O)cc5)CC4)cn3)CC2)cc1 | –
17 | 21 | 890 | 5930 | 6580 | O=C(NC1CCN(Cc2ccc(F)cc2)CC1)c1ccc(C(=O)N2CCC(C(=O)c3ccc(-n4cccn4)cc3)CC2)nc1 | inhibition at 10 µM (hERG (KCNH2) [7]): 85%

Further lines, the molecule ahead of its results:

Row | Structure (SMILES) | EC50 [1] [nM] | IC50 [2] [nM] | IC50 (A549) [nM] | IC50 (NCI-H1299) [nM] | other results
18 | CC1(C)CN(C(=O)c2ccc(C(=O)NC3CCN(Cc4ccc(C#N)cc4)CC3)nc2)CCN1Cc1ccc(F)cc1 | 1 | – | – | – | –
19 | COc1ccc(CC2CCN(C(=O)c3ccc(C(=O)NC4CCN(Cc5ccc(C#N)cc5)CC4)nc3)CC2)cc1 | 1 | 7 | – | – | IC50 (Cytochrome P450 3A4 [5]): 2000 nM; IC50 (Cytochrome P450 3A4 [6]): > 10000 nM; half-life [4]: 46 min
20 | N#Cc1ccc(CN2CCC(NC(=O)c3ccc(C(=O)N4CCC(Oc5ccc(F)cc5F)CC4)nc3)CC2)cc1 | 13 | 522 | – | – | inhibition at 3 µM (hERG (KCNH2) [3]): 36%
21 | N#Cc1ccc(CN2CCC(NC(=O)c3ccc(C(=O)N4CCC(F)(C(=O)c5ccc(F)cc5)CC4)cn3)CC2)cc1 | 2 | 16 | – | – | IC50 (Cytochrome P450 3A4 [5]): > 10000 nM; IC50 (Cytochrome P450 3A4 [6]): > 10000 nM; half-life [4]: 27 min
22 | O=C(NC1CCN(C(=O)c2ccccc2)CC1)c1ccc(C(=O)N2CCN(Cc3ccc(F)cc3)CC2)cn1 | 240 | – | – | – | –
23 | N#Cc1ccc(S(=O)(=O)N2CCC(NC(=O)c3ccc(C(=O)N4CCN(Cc5ccc(F)cc5)CC4)cn3)CC2)cc1 | 804 | – | – | – | –
24 | N#Cc1ccc(CN2CCC(NC(=O)c3ccc(C(=O)N4CCN(C(=O)c5ccc(F)cc5)CC4)cn3)CC2)cc1 | 413 | – | – | – | –
25 | COc1ccc(C(=O)N2CCN(C(=O)c3ccc(C(=O)NC4CCN(Cc5ccc(C#N)cc5)CC4)nc3)CC2)cc1 | 175 | – | – | – | –
26 | N#Cc1ccc(CN2CCC(NC(=O)c3ccc(C(=O)N4CCN(Cc5ccc(F)cc5)C(=O)C4)cn3)CC2)cc1 | 466 | – | – | – | –
27 | CC(C)(C)C(=O)N1CCN(C(=O)c2ccc(C(=O)NC3CCN(Cc4ccc(C#N)cc4)CC3)nc2)CC1 | 532 | – | – | – | –
28 | N#Cc1ccc(CN2CCC(NC(=O)c3ccc(C(=O)N4CCC(C(=O)c5ccc(C#N)cc5)CC4)cn3)CC2)cc1 | 5 | 794 | – | – | inhibition at 3 µM (hERG (KCNH2) [3]): 54%
29 | O=C(NC1CCN(Cc2ccccc2)CC1)c1ccc(C(=O)N2CCN(Cc3ccccc3)CC2)cn1 | 16 | – | – | – | –
30 | N#Cc1ccc(CN2CCC(NC(=O)c3ccc(C(=O)N4CCC(Oc5ccc(C#N)cc5)CC4)cn3)CC2)cc1 | 3 | 125 | – | – | inhibition at 3 µM (hERG (KCNH2) [3]): 47%; IC50 (Cytochrome P450 3A4 [6]): 3500 nM; half-life [4]: 30 min
31 | N#Cc1ccc(CN2CCC(NC(=O)c3ccc(C(=O)N4CCC(C(=O)c5ccc(-n6ccnc6)cc5)CC4)nc3)CC2)cc1 | 312 | – | 15100 | 15100 | –
32 | N#Cc1ccc(CN2CCC(NC(=O)c3ccc(C(=O)N4CCC(C(F)c5ccc(F)cc5)CC4)cn3)CC2)cc1 (stereo not drawn) | 6 | 1 | – | – | IC50 (Cytochrome P450 3A4 [6]): 9800 nM; half-life [4]: 8 min
33 | N#Cc1ccc(CN2CCC(NC(=O)c3ccc(C(=O)N4CCN(S(=O)(=O)c5ccc(F)cc5)CC4)cn3)CC2)cc1 | 393 | – | – | – | –
34 | COc1ccc(OC2CCN(C(=O)c3ccc(C(=O)NC4CCN(Cc5ccc(C#N)cc5)CC4)nc3)CC2)cc1 | 11 | 60 | – | – | inhibition at 3 µM (hERG (KCNH2) [3]): 46%; IC50 (Cytochrome P450 3A4 [5]): > 10000 nM; IC50 (Cytochrome P450 3A4 [6]): > 10000 nM; half-life [4]: 68 min; clearance [8]: 71 mL/min/kg
35 | N#Cc1ccc(CN2CCC(NC(=O)c3ccc(C(=O)N4CCC(C(=O)c5ccc(N6CCCC6)cc5)CC4)nc3)CC2)cc1 | 20 | 1660 | 5050 | 5390 | –
36 | N#Cc1ccc(CN2CCC(NC(=O)c3ccc(C(=O)N4CCN(Cc5ccc(F)cc5)CC4)cn3)CC2)cc1 | 1 | – | – | – | inhibition at 3 µM (hERG (KCNH2) [3]): 36%; half-life [4]: 55 min; clearance [8]: 200 mL/min/kg

Row | Structure (SMILES) | EC50 [1] [nM] | IC50 [2] [nM] | IC50 (A549) [nM] | IC50 (NCI-H1299) [nM] | other results
37 | N#Cc1ccc(CN2CCC(NC(=O)c3ccc(C(=O)N4CCC(Oc5ccc(C#N)cc5)CC4)nc3)CC2)cc1 | 92 | 476 | – | – | –
38 | N#Cc1ccc(CN2CCC(NC(=O)c3ccc(C(=O)N4CCC(Oc5ccc(F)cc5F)CC4)cn3)CC2)cc1 | 4 | 22 | – | – | –
39 | N#Cc1ccc(CN2CCC(NC(=O)c3ccc(C(=O)N4CCC(C(O)c5ccc(F)cc5)CC4)cn3)CC2)cc1 (stereo not drawn) | 55 | 619 | – | – | –
40 | N#Cc1ccc(CC2CCN(C(=O)c3ccc(C(=O)NC4CCN(Cc5ccc(C#N)cc5)CC4)nc3)CC2)cc1 | 14 | 33 | – | – | half-life [4]: 14 min
41 | CC(c1ccccc1)N1CCC(NC(=O)c2ccc(C(=O)N3CCN(Cc4ccc(F)cc4)CC3)cn2)CC1 (stereo not drawn) | 129 | – | – | – | –
42 | O=C(NC1CCN(C(=O)C2CCCCC2)CC1)c1ccc(C(=O)N2CCN(Cc3ccc(F)cc3)CC2)cn1 | 300 | – | – | – | –
43 | N#Cc1ccc(CN2CCC(NC(=O)c3ccc(C(=O)N4CCN(C(=O)c5ccccc5)CC4)cn3)CC2)cc1 | 1390 | – | – | – | –
44 | N#Cc1ccc(CN2CCC(NC(=O)c3ccc(C(=O)N4CCN(S(=O)(=O)c5ccccc5)CC4)cn3)CC2)cc1 | 360 | – | – | – | –
45 | N#Cc1ccc(CN2CCC(NC(=O)c3ccc(C(=O)N4CCC(Cc5ccccc5)CC4)cn3)CC2)cc1 | 110 | – | – | – | –
46 | CC(C)(c1ccc(F)cc1)N1CCN(C(=O)c2ccc(C(=O)NC3CCN(Cc4ccc(C#N)cc4)CC3)nc2)CC1 | 6 | – | – | – | –
47 | COc1ccc(S(=O)(=O)N2CCN(C(=O)c3ccc(C(=O)NC4CCN(Cc5ccc(C#N)cc5)CC4)nc3)CC2)cc1 | 548 | – | – | – | –
48 | CC(C)(c1ccccc1)N1CCC(NC(=O)c2ccc(C(=O)N3CCN(Cc4ccc(F)cc4)CC3)cn2)CC1 | 2790 | – | – | – | –
49 | N#Cc1ccc(CN2CCC(NC(=O)c3ccc(C(=O)N4CCC(C(=O)c5ccc(F)cc5F)CC4)cn3)CC2)cc1 | 27 | 8 | – | – | inhibition at 3 µM (hERG (KCNH2) [3]): 34%; IC50 (Cytochrome P450 3A4 [5]): > 10000 nM; IC50 (Cytochrome P450 3A4 [6]): > 10000 nM; half-life [4]: 63 min
50 | O=C(c1ccc(C(=O)N2CCN(Cc3ccccc3)CC2)nc1)N1CCN(Cc2ccccc2)CC1 | 10000 | – | – | – | –
51 | O=C(NC1CCN(Cc2ccccc2)CC1)c1ccc(C(=O)N2CCN(Cc3ccccc3)CC2)nc1 | 35 | 1390 | – | – | –
52 | N#Cc1ccc(C(=O)N2CCC(NC(=O)c3ccc(C(=O)N4CCN(Cc5ccc(F)cc5)CC4)cn3)CC2)cc1 | 950 | – | – | – | –
53 | N#Cc1ccc(CN2CCC(NC(=O)c3ccc(C(=O)N4CCC(C(=O)c5ccc(-n6cncn6)cc5)CC4)nc3)CC2)cc1 | 437 | – | 4820 | 6310 | –
54 | O=C(NC1CCN(Cc2ccccc2)CC1)c1ccc(C(=O)NC2CCN(Cc3ccccc3)CC2)nc1 | 10000 | – | – | – | –
